The source of these data is paper PMC8839448, “Novel Pyridothienopyrimidine Derivatives: Design, Synthesis and Biological Evaluation as Antimicrobial and Anticancer Agents” (Molecules, 2022).

Converted amounts (≈) assume the structure as drawn.

For one data set, the system named is E. coli. The settings on record: Figure 1, reported agents; ref [21],[22],[33],[34]; cited from earlier work.
The test system of the next data set is S. aureus. Particulars: Figure 1, reported agents; ref [21],[22],[33],[34]; cited from earlier work.
The subject of the next data set is HepG2 and MCF-7. Particulars: Figure 1, reported agents; ref [21],[22],[33],[34]; read-out: IC50 range HepG2 and MCF-7; cited from earlier work.
Another data set has as its system S. typhimurium. Particulars: Figure 1, reported agents; ref [21],[22],[33],[34]; cited from earlier work.
The next data set deals with B. cereus. Particulars: Figure 1, reported agents; ref [21],[22],[33],[34]; cited from earlier work.
The subject of data set [1] is Saccharomycese cerevisiae. In words: In vitro antifungal activity, MIC by broth dilution. It is filed as cell-based. Particulars: Saccharomyces cerevisiae, yeast, read-out: MIC S. cerevisiae. In general terms: Dilution methods test growth across graded concentrations, often in twofold steps.
A further data set has as its system Bacillus cereus 33018. In words: In vitro antibacterial activity, MIC by broth dilution. Particulars: Gram +ve bacteria, read-out: MIC B. cereus. Format: cell-based.
Data set [2] relates to Staphylococcus aureus 25923. The data set can be described thus: In vitro antibacterial activity, MIC by broth dilution. Format: cell-based. Particulars: Gram +ve bacteria, read-out: MIC S. aureus.
For data set [3], the system named is all the tested yeasts and fungi strains. The data set can be described thus: Antifungal MIC, range over the panel. Format: cell-based.
Another data set deals with Escherichia coli 8739. In words: In vitro antibacterial activity, MIC by broth dilution. It is filed as cell-based. The settings on record: Gram −ve bacteria.
The subject of data set [4] is Salmonella typhimurium 14028. The description is as above. It is filed as cell-based. The settings on record: Salmonella enterica, Gram −ve bacteria, read-out: MIC S. typhimurium.
Data set [5] deals with Aspergillus niger EM77 (KF774181). In words: In vitro antifungal activity, MIC by broth dilution. Format: cell-based. Particulars: fungi.
The next data set has as its system Candida albicans 10231. Described as above. It is filed as cell-based. The settings on record: yeast, read-out: MIC C. albicans.
In data set [6] the test system is five bacterial and five fungal strains. The data set can be described thus: Antimicrobial MIC, range over bacterial and fungal strains. Particulars: range over bacterial and fungal strains. Format: cell-based.
For data set [7], the system named is breast cancer (MCF-7) cells. In words: Cytotoxicity, MTT assay. It is filed as cell-based, human. Particulars: Homo sapiens, MCF7, MCF7 cells, read-out: Cytotoxic activity IC50 MCF7.
Another data set relates to five bacterial strains. The data set can be described thus: Antibacterial MIC, range over the panel. It is filed as cell-based.
The test system of data set [8] is HepG2 and MCF-7 cancer cell lines. The data set can be described thus: Cytotoxicity, MTT assay, range over both cancer cell lines. It is filed as cell-based, human. Particulars: Homo sapiens; range over HepG2 and MCF-7; read-out: IC50 range, cytotoxic activity against both cell lines.
A short description of data set [9]: Cytotoxicity against normal cells, MTT assay. Particulars: human, WISH normal cells. (Tetrazolium assays rely on reduction of a dye to a coloured formazan, in cell work by metabolically active cells.)
Text: The cytotoxicity was estimated as IC50 in μM for the tested compounds and the reference drug doxorubicin, and are listed in Table 3.
A further data set relates to Candida tropicals 750. In words: In vitro antifungal activity, MIC by broth dilution. Format: cell-based. Particulars: yeast, read-out: MIC C. tropicals.
The subject of another data set is Bacillus subtilis 6633. The data set can be described thus: In vitro antibacterial activity, MIC by broth dilution. Format: cell-based. Particulars: Gram +ve bacteria, read-out: MIC B. subtilis.
For another data set, the target named is EGFR kinase (Homo sapiens, UniProt P00533). The data set can be described thus: In vitro EGFR kinase inhibitory assay (Kinase-Glo MAX kit). The settings on record: EGFR IC50, EGFR kinase assay kit, triplicate, ± SD. A general note: In Kinase-Glo more light means more ATP remaining.
A further data set relates to Aspergillus flavus. The data set can be described thus: In vitro antifungal activity, MIC by broth dilution. It is filed as cell-based. The settings on record: fungi.
For data set [10], the system named is hepatocellular carcinoma (HepG2) cells. In words: Cytotoxicity, MTT assay. It is filed as cell-based. Particulars: Homo sapiens, read-out: Cytotoxic activity IC50 HepG2.

EGFR kinase, sequence (P00533 25-1210): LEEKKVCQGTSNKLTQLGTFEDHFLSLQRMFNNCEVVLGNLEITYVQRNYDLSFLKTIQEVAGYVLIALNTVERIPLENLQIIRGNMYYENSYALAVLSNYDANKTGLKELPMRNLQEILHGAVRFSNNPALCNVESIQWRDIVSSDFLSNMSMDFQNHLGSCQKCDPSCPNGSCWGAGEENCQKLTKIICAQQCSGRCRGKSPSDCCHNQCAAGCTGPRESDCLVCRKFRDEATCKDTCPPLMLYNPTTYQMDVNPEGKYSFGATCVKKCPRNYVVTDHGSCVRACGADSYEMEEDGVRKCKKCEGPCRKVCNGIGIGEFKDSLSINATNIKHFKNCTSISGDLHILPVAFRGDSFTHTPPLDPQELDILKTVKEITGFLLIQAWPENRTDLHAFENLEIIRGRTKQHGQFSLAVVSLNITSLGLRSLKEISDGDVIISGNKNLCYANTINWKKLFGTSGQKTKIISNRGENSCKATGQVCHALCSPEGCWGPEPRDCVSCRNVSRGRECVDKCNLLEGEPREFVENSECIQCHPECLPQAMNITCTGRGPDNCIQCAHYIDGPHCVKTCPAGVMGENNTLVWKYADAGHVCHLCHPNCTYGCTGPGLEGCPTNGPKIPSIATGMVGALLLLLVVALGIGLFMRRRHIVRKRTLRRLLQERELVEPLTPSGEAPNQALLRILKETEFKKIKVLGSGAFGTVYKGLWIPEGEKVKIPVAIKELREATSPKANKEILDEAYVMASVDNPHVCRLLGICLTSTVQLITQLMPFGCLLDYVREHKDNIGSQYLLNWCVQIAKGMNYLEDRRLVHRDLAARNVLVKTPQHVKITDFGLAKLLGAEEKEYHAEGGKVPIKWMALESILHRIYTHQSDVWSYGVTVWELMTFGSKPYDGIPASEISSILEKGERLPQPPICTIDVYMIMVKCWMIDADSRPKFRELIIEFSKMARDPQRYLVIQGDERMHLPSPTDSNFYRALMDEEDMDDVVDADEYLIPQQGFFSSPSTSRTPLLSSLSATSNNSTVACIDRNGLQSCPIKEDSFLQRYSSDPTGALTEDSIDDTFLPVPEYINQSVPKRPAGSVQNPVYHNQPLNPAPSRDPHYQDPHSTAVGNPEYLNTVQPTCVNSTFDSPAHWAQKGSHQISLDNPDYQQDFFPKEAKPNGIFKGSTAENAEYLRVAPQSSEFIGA
Experimental for EGFR kinase: The assay kit is designed to measure EGFR Kinase activity for screening applications using Kinase-Glo® MAX as a detection reagent. The luminescence was measured using a microplate reader (Infinite M200 microplate reader, Tecan, Männedorf, Switzerland) [54]. All assays were performed in triplicate and the relative inhibition (%) of inhibitors was then calculated via comparison with the control with no inhibitor.
In vitro EGFR kinase assay
The assay Kit is designed to measure EGFR Kinase
activity for screening applications using Kinase-Glo® MAX as a detection reagent
using Kinase-Glo® MAX as a detection reagent. Thaw 5x Kinase Buffer 1: ATP and
PTK substrate Poly (Glu:Tyr 4:1) (10 mg/ml) kinase was provided. Then the master
mixture was prepared: N wells x (6 μl 5x Kinase Buffer 1 + 1 µl ATP (500 µM) + 1
µl PTK substrate Poly (Glu:Tyr 4:1) (10 mg/ml)+ 17 μl water) and 25 μl of the
mixture was added to every well. The tested compounds were dissolved in DMSO,
well labeled as “Positive Control", 5 μl of the same solution of the reference drug
erlotinib and “Blank”, 5 μl of the same solution without inhibitor (Inhibitor buffer).
ml of 1x Kinase Buffer 1) was prepared by mixing 600 µl of 5x Kinase Buffer 1 with
The reaction initiated by adding 20 µl of diluted EGFR enzyme to the wells designated “Positive Control” and "Test Inhibitor Control". Incubate at 30°C for 40
minutes. Thaw Kinase-G lo Max reagent. After the 40 minute reaction, 50 µl of
Kinase-Glo Max reagent was added to each well. The plate was covered with
aluminum foil and incubate at room temperature for 15 minutes. Then the
luminescence was measured using the microplate reader (Infinite M200 microplate
reader, Tecan, Männedorf, Switzerland). All assays were performed in triplicate. The
relative inhibition (%) of inhibitors were then calculated compared to the control with
no inhibitor. Then the IC50 values and their standard deviation (SD) for the tested
compounds and the reference drug were determined in (nM).

In the case of `CCOC(=O)c1sc2nc(-c3ccc(OC)cc3)cc(-c3cccs3)c2c1N` [III], the “MIC E. coli” value in the data set with E. coli is 7.80 mg/L (≈ 19 µM). In the data set with S. aureus, the “MIC S. aureus” value was 7.80 mg/L (≈ 19 µM). Besides, the IC50 in the data set on HepG2 and MCF-7 was 33.2 to 34.8 µM.
With `NC(=O)c1sc2nc(-c3ccco3)cc(-c3cccs3)c2c1N` [I], the “MIC E. coli” value in the data set on E. coli was 15.60 mg/L (≈ 45.7 µM). For the same molecule, the “MIC S. typhimurium” value in the data set with S. typhimurium was 15.60 mg/L (≈ 45.7 µM).
For `COc1ccc(-c2cc(-c3ccco3)nc3sc(C(N)=O)c(N=C4CCCCC4)c23)cc1` [II], the “MIC E. coli” value in the data set with E. coli was 15.60 mg/L (≈ 35 µM). Further, the “MIC B. cereus” value in the data set with B. cereus was 15.60 mg/L (≈ 35 µM). Moreover, the “MIC S. aureus” value with S. aureus was 15.60 mg/L (≈ 35 µM).
`Cc1ccc(-c2cc(-c3ccccc3)nc3sc4c(=O)[nH]c(CN5CCOCC5)nc4c23)cc1` [Compound 5a, 2-(Morpholinomethyl)-7-phenyl-9-(p-tolyl)pyrido[3′,2′:4,5]thieno[3,2-d]pyrimidin-4(3H)-one]: the melting point turned out to be 245 °C. In addition, the MIC in data set [1] came to 8 mg/L (≈ 17.1 µM). In the data set on Bacillus cereus 33018, the MIC was found to be 16 mg/L (≈ 34.1 µM). Also, in data set [2], the MIC amounted to 8 mg/L (≈ 17.1 µM). Also, the “MIC range against the tested yeasts and fungi strains” value in data set [3] fell in the range of 4 to 16 mg/L. Further, in the data set with Escherichia coli 8739, inhibition of growth (MIC) required 8 mg/L (≈ 17.1 µM). In addition, the MIC in data set [4] amounted to 16 mg/L (≈ 34.1 µM). For the same molecule, in data set [5], inhibition of growth (MIC) required 16 mg/L (≈ 34.1 µM). In addition, the MIC in the data set with Candida albicans 10231 was found to be 16 mg/L (≈ 34.1 µM). Also, in data set [6], the “MIC range, antibacterial and antifungal” value was 4 to 16 mg/L. The IC50 in data set [7] was determined as 2.79 ± 0.18 µM. Also, in the data set on five bacterial strains, the “MIC range against the tested bacterial strains” value was 8 to 16 mg/L. The IC50 in data set [8] fell in the range of 1.17 to 2.79 µM. Further, the midpoint of inhibition in data set [9], the IC50, lay at 408 ± 15.9 µM. Also, the MIC with Candida tropicals 750 amounted to 8 mg/L (≈ 17.1 µM). For the same molecule, the MIC in the data set on Bacillus subtilis 6633 came to 8 mg/L (≈ 17.1 µM). The same molecule gave an IC50 against EGFR kinase of 0.00966 ± 8e-05 µM. In the data set on Aspergillus flavus, this molecule returned an MIC of 8 mg/L (≈ 17.1 µM). For the same molecule, the IC50 in data set [10] amounted to 1.99 ± 0.09 µM.

As a reminder, the IC50 is the concentration at which inhibition is half-maximal. The term MIC denotes the lowest concentration that inhibits growth of the organism. In general, melting point refers to the temperature of the solid-liquid transition.
